Laboratory results: paper PMC8343220, “The selectivity of α‐adrenoceptor agonists for the human α1A, α1B, and α1D‐adrenoceptors” (Pharmacology Research & Perspectives, 2021)
pIC50: −log10 of the molar value. Where two headings read alike, the source gives them in different places.

Experiments:
[1] = test system: parental CHO cell line without any transfected receptors; assay: ERK1/2‐phosphorylation, parent CHO cells without transfected receptors; format: cell-based, Chinese hamster; settings: for ERK1/2-phosphorylation % PDBu: maximal response as % of PDBu (10μM) response
[2] = target: T1, human α1B‐adrenoceptor (Homo sapiens, UniProt P35368); assay: ^3H‐prazosin whole‐cell radioligand binding, CHO‐α1B cells; settings: CHO‐α1B cells; for Log KD, ^3H‐prazosin binding: whole‐cell binding (from Table 1), given as log KD (negative numbers); for Log KD α1B, ^3H‐prazosin whole cell binding: given as log KD (negative), mean ± SEM
T1 construct: expressed in transfected cells; host or cells: CHO-K1
T1 sequence (P35368 1-520): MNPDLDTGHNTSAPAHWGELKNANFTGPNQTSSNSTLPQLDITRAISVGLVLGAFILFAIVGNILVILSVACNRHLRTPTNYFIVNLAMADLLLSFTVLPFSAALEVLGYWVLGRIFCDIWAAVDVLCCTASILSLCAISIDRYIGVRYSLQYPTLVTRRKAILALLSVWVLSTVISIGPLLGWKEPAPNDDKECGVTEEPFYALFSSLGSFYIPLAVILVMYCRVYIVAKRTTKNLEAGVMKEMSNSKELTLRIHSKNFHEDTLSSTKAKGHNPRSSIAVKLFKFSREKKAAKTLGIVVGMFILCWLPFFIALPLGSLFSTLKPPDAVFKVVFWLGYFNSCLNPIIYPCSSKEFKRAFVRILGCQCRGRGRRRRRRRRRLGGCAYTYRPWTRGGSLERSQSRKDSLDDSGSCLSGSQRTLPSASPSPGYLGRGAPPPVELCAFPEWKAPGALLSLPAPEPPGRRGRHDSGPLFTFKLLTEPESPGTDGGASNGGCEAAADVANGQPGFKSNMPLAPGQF

[3] = target: T2, human α1D‐adrenoceptor (full length) (Homo sapiens, UniProt P25100); assay: ^3H‐prazosin whole‐cell radioligand binding, CHO‐α1D cells; settings: for 3H‐prazosin binding Log KD: whole‐cell binding (from Table 1), log values given negative
T2 construct: human α1D‐adrenoceptor (full length) were used; expressed in transfected cells; host or cells: CHO-K1
T2 sequence (P25100 1-572): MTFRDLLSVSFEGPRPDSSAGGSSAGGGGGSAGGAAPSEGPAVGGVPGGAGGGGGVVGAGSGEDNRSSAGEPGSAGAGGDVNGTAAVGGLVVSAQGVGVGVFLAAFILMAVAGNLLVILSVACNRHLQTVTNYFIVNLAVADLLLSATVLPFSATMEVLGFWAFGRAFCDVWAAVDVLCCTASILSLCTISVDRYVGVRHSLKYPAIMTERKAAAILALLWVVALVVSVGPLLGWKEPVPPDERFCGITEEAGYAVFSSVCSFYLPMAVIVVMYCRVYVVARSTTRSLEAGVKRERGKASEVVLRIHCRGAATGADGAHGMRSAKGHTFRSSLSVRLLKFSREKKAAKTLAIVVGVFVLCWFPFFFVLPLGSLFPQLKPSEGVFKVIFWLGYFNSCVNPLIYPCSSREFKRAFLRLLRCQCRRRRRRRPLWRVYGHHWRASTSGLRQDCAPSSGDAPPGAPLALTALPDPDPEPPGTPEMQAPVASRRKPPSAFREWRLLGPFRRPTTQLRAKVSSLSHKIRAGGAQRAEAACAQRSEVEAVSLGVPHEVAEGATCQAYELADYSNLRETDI

[4] = target: T1, human α1B‐adrenoceptor; assay: Intracellular free calcium mobilization, CHO‐α1B cells; format: cell-based; settings: for Intracellular calcium release % Ionomycin at 100 µM: response at 100 µM ligand (no EC50 given), % of ionomycin response
[5] = target: T2, human α1D‐adrenoceptor (full length); assay: Intracellular free calcium mobilization, CHO‐α1D cells; format: cell-based; settings: for Intracellular calcium release % ionomycin: maximal response as % of 10 µM ionomycin
[6] = target: T3, human α1A‐adrenoceptor (Homo sapiens, UniProt P35348); assay: ERK1/2‐phosphorylation (Surefire Alphascreen), CHO‐α1A cells; format: cell-based; settings: CHO‐α1A cells; response at 100 μM ligand, no EC50 obtained
T3 construct: expressed in transfected cells; host or cells: CHO-K1
T3 sequence (P35348 1-466): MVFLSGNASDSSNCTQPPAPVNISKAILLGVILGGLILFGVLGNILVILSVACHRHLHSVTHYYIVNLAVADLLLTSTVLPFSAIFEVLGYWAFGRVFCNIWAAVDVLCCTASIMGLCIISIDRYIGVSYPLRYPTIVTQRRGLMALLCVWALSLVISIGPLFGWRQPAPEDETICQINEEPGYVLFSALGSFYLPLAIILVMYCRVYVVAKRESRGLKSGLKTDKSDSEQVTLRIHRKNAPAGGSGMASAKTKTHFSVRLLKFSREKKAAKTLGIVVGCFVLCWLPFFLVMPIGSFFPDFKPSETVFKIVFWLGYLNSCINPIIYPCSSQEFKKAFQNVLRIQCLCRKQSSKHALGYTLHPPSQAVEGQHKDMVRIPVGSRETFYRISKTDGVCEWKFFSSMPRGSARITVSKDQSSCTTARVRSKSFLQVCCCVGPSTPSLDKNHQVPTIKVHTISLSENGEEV

[7] = target: T1, human α1B‐adrenoceptor; assay: ERK1/2‐phosphorylation (Surefire Alphascreen), CHO‐α1B cells; format: cell-based; settings: CHO‐α1B cells; response at 100 µM ligand (no EC50 given)
[8] = target: T2, human α1D‐adrenoceptor (full length); assay: ERK1/2‐phosphorylation (Surefire Alphascreen), CHO‐α1D cells; format: cell-based; settings: for ERK1/2‐phosphorylation % PDBu at 10 µM: response at 10 µM ligand (no EC50 given)
[9] = target: T3, human α1A‐adrenoceptor; assay: ^3H‐prazosin whole‐cell radioligand binding, CHO‐α1A cells
[10] = target: T3, human α1A‐adrenoceptor; assay: Intracellular free calcium mobilization, CHO‐α1A cells; format: cell-based
[11] = CHO cells without transfected receptors, mean ± s.e.m.
[12] = CHO‐α1D cells, log values given negative
[13] = CHO‐α1D cells, maximal response as % of PDBu
[14] = higher affinity for α1A than α1B

Log KD, ^3H‐prazosin binding [2]	Log KD α1B, ^3H‐prazosin whole cell binding [2]	Intracellular calcium release % Ionomycin at 100 µM ([4]; CHO‐α1B cells) [%]	Intracellular calcium release Log EC50 [5, 12]	Intracellular calcium release % ionomycin ([5]; CHO‐α1D cells)	ERK1/2‐phosphorylation Log EC50 [8, 12]	ERK1/2‐phosphorylation % PDBu [8, 13]	SMILES	ERK1/2-phosphorylation % PDBu [1, 11]	ERK1/2-phosphorylation Log EC50 [1, 11]	ERK1/2‐phosphorylation % PDBu at 10 µM ([8]; CHO‐α1D cells) [%]	Affinity selectivity ratio α1A vs α1B [9, 14] [fold]	3H‐prazosin binding Log KD ([3]; CHO‐α1D cells)	also measured
–	–	–	–	–	–	–	O=C1Cc2cc(CCN3CCN(c4nsc5ccccc45)CC3)c(Cl)cc2N1 [ziprasidone]	No response	No response	–	–	–	–
No binding	No binding	16.9 ± 2.0	No response	No response	No response	No response	COc1ccc(OC)c(C(O)CNC(=O)CN)c1 (stereo not drawn) [Midodrine]	No response	No response	–	–	–	3H‐prazosin binding log IC50 (bound, printed in Log KD column) ([3]; CHO‐α1D cells, whole‐cell binding, given as IC50 > log value): IC50 > −3; pIC50 ([3]; CHO‐α1D cells, printed as IC50> log value): < 3.00; ERK1/2‐phosphorylation % PDBu at 100 µM [6]: 87.7 ± 11.0%; ERK1/2‐phosphorylation % PDBu at 100 µM [7]: 20.4 ± 8.0%
–	–	–	No response	No response	–	–	O=C1Cc2cc(CCN3CCN(c4nsc5ccccc45)CC3)c(Cl)cc2N1 [Ziprasidone]	–	–	4.6 ± 2.7	–	–	–
–	–	–	–	–	–	–	Cc1ccc(/N=C/N(C)/C=N/c2ccc(C)cc2C)c(C)c1 [Amitraz]	No response	–	–	–	–	Affinity selectivity ratio α1A vs α1B [9]: >33.1 fold; Affinity selectivity ratio α1B vs α1D [3]: >12.0 fold; Intracellular calcium release Log EC50 [10]: No response; Intracellular calcium release Log EC50 [4]: No response; Intracellular calcium release Log EC50 [5]: No response; ERK1/2‐phosphorylation % PDBu [8]: No response; ERK1/2‐phosphorylation Log EC50 [8]: No response; ERK1/2-phosphorylation Log EC50 [1]: No response
No binding	No binding	16.6 ± 2.1	No response	No response	No response	No response	CCN1CCc2nc(N)oc2CC1 [BHT933]	–	–	–	>4.0	−3.70	Log KD α1A (apparent), ^3H‐prazosin whole cell binding ([9]; CHO‐α1A cells, apparent KD: maximum concentration did not inhibit all specific binding, IC50 extrapolated): −3.60 ± 0.06^apparent; Log KD α1D (apparent), ^3H‐prazosin whole cell binding ([3]; CHO‐α1D cells, apparent KD: maximum concentration did not inhibit all specific binding, IC50 extrapolated): −3.70 ± 0.18^apparent; Affinity selectivity ratio α1A vs α1D ([3]; higher affinity for α1D than α1A): 1.3 fold; Intracellular calcium release % Ionomycin at 100 µM ([10]; CHO‐α1A cells, response at 100 μM ligand, no EC50 obtained): 25.5 ± 3.7%

SMILES	Log KD, ^3H‐prazosin binding [2]	Log KD α1B, ^3H‐prazosin whole cell binding [2]	Intracellular calcium release % Ionomycin at 100 µM ([4]; CHO‐α1B cells) [%]	Intracellular calcium release Log EC50 [5, 12]	Intracellular calcium release % ionomycin ([5]; CHO‐α1D cells)	ERK1/2‐phosphorylation Log EC50 [8, 12]	ERK1/2‐phosphorylation % PDBu [8, 13]	ERK1/2-phosphorylation % PDBu [1, 11]	ERK1/2-phosphorylation Log EC50 [1, 11]	ERK1/2‐phosphorylation % PDBu at 10 µM ([8]; CHO‐α1D cells) [%]	Affinity selectivity ratio α1A vs α1B [9, 14] [fold]	3H‐prazosin binding Log KD ([3]; CHO‐α1D cells)	also measured
Cc1sc(C)c2c1CCC=C2c1cnc[nH]1.O=C(O)/C=C\C(=O)O [T‐CG 1000]	−5.18	−5.18 ± 0.06	–	No response	No response	–	–	–	–	16.3 ± 5.9	6.0	−5.91	Log KD α1A, ^3H‐prazosin whole cell binding ([9]; CHO‐α1A cells, given as log KD (negative), mean ± SEM): −5.96 ± 0.05; Affinity selectivity ratio α1A vs α1D ([9]; higher affinity for α1A than α1D): 1.1 fold; Log KD α1D, ^3H‐prazosin whole cell binding ([3]; CHO‐α1D cells, given as log KD (negative), mean ± SEM, 'early plateau' = specific binding not fully inhibited): −5.91 ± 0.12; Affinity selectivity ratio α1B vs α1D ([3]; higher affinity for α1D than α1B): 5.4 fold; Intracellular calcium release % ionomycin at 10 µM ([10]; CHO‐α1A cells, response at 10 μM ligand, no EC50 obtained): 21.0 ± 1.9%; Intracellular calcium release Log EC50 ([4]; CHO‐α1B cells, given as log EC50 (negative numbers)): No response; Intracellular calcium release % ionomycin ([4]; CHO‐α1B cells, maximal response as % of 10 µM ionomycin response): No response
